Data set [1] is described as follows: retentivity in blood test, 4 MU-Pal versus 4 MU-CHEMS. Type of data set: in vivo. Particulars: B-2:DOPC:Chol emulsion, tail vein, ICR mouse; comparison with 4 MU-Pal. As to the method:
To a lipid mixture of B-2:DOPC:Chol=3:4:3 were added DSG-PEG2000 (9 mol %) and 30 mol % 4 MU-Pal, and 1 mol % fluorescent dye DiD was added to give an emulsion by a method similar to that in Example 1.
To a lipid mixture of B-2:DOPC:Chol:4 MU-CHEMS=3:4:1.5:1.5 was added DSG-PEG2000 (15 mol %), fluorescent dye DiD (1 mol %) was further added, and an emulsion was prepared by a method similar to that in Example 1.
The concentration of the particle suspension was set to 4 mM as a lipid concentration (B-2+DOPC+Chol). The suspension (250 μL) was administered to ICR mouse J 4-week-old from the tail vein. Blood (25 μL) was collected at each time point and mixed with pH 10.4 borate buffer (275 μL), ethanol (150 μL), 10% SDS (50 μL). 4 MU-Pal or 4 MU-CHEMS was hydrolyzed by incubation at 60° C. for 30 min. The fluorescence of the resulting 4-methylumbelliferone, and DiD modified by particles was each measured by a plate reader and the residual amount in the blood was examined from the analytical curve.

A short description of data set [2]: retentivity in blood of Dex-CHEMS / Dex-Pal emulsions (HPLC of plasma). On the set-up: species or system ICR mouse. Particulars: mouse, in vivo, iv. As to the method: When the lipid composition was 3 mM B-2/DOPC/Chol=3/4/3+10 mol % Dex-CHEMS+10 mol % DMG-PEG2000+10 mol % DSG-PEG2000 (1000 μL), a lipid solution was mixed in vitro as follows.
The solvent was evaporated once and the residue was redissolved in 100 μL CHCl3. N2 gas was blown to form a lipid thin film on the wall of a test tube. After a few hours of a vacuum treatment by a desiccator, 20 mM Maric acid buffer (30 mM NaCl, pH 3.0, 1000 μL) was added, and the mixture was incubated for 10 min at room temperature. After sonication with a bath-type sonicator for 30 sec, the mixture was sonicated by a probe-type sonicator for 5 min (output power: 30%). After centrifugation at 4° C., 15000 g for 5 min, the supernatant was collected. Neutralization was performed by adding an equal amount of 36 mM NaOH/PBS.
An emulsion composed of Dex-CHEMS and B-2 was administered to ICR mouse (4 w ♂) at 25 μg Dex-CHEMS/mouse. […]
Plasma (16.5 μL) centrifuged at 4° C., 1000 g for 10 min was transferred to another 1.5 mL tube. […] Using HPLC, the peak area of Dex-CHEMS and the peak area of 4 MU-Pal were calculated. The peak area of 0.5, 0.25, 0.125, 0.0625 nmol Dex-CHEMS was calculated by a similar method using HPLC and used as an analytical curve. […]
The residual rate in blood at 1 hr later was calculated with that 1 min after the administration as 100%.

Data set [3] is described as follows: influence of concentration of PEG lipid on retentivity in blood. The format is in vivo. The following applies: B-2/DOPC/Chol=3/4/3, 10 mol % DMG-PEG2000, 3-9 mol % DSG-PEG2000, 10 mol % Dex-CHEMS; mouse tail vein; almost equal for 6 and 9 mol %. Here is the method:
An emulsion having a composition of B-2/DOPC/Chol=3/4/3+10 mol % DMG-PEG2000+3-9 mol % DSG-PEG2000+10 mol % Dex-CHEMS was prepared in the same manner as in Example 1. An emulsion having each PEG amount was administered from the mouse tail vein, plasma was collected 1 min, 1 hr, 6 hr and 24 hr later, extracted with an organic solvent, and Dex-CHEMS concentration was calculated by HPLC. Along with an increase in DSG-PEG2000, the retentivity in blood was improved to become almost equal for DSG-PEG2000 6 mol % and 9 mol %.

This is an account of results in patent US11395798B2, “O/W type emulsion” (NOF CORPORATION, priority 2015, dated 2022).

As to `Cc1cc(=O)oc2cc(OC(=O)CCC(=O)OC3CCC4(C)C(=CCC5C4CCC4(C)C(C(C)CCCC(C)C)CCC54)C3)ccc12` (stereo not drawn) [4 MU-CHEMS, 4-methylumbelliferone cholesterol hemisuccinate], in data set [1], the retentivity in blood result is reported as “stayed longer in the blood than 4 MU-Pal”. `CC(C)CCC[C@@H](C)[C@H]1CC[C@H]2C3CC=C4C[C@@H](OC(=O)CCC(=O)OCC(=O)[C@]5(O)[C@@H](C)C[C@@H]6[C@H]7CCC8=CC(=O)C=C[C@@]8(C)[C@]7(F)C(O)C[C@]65C)CC[C@]4(C)[C@H]3CC[C@]12C` (stereo partly drawn) [Dex-CHEMS, dexamethasone cholesterol hemisuccinate]: the “residual in blood at 1 hr (1 min after administration as 100%)” value in data set [2] was “continuously remained”. For the same compound, in data set [3], the “retentivity in blood along with an increase in DSG-PEG2000” value is “improved”.
